# Source: patent US12653814B2, “Benzimidazolone-based cinnamamide derivative as TRPV1 antagonist and pharmaceutical composition for treatment or prevention of pain containing same as active ingredient” (JMACKEM CO., LTD, priority 2020, dated 2026)
# What was measured:
# human TRPV1 (hTRPV1) [1] = target: T1, human TRPV1 (hTRPV1) (Homo sapiens, UniProt Q8NER1); assay: Evaluation of human pH inhibitory activity in hTRPV1-HEK recombinant cells; format: cell-based; conditions: inhibition of activation at final pH 6.0, test substance 3 μM
# T1 construct: host or cells: HEK (PrecisION hTRPV1-HEK recombinant cell line)
# T1 sequence (Q8NER1 whole entry): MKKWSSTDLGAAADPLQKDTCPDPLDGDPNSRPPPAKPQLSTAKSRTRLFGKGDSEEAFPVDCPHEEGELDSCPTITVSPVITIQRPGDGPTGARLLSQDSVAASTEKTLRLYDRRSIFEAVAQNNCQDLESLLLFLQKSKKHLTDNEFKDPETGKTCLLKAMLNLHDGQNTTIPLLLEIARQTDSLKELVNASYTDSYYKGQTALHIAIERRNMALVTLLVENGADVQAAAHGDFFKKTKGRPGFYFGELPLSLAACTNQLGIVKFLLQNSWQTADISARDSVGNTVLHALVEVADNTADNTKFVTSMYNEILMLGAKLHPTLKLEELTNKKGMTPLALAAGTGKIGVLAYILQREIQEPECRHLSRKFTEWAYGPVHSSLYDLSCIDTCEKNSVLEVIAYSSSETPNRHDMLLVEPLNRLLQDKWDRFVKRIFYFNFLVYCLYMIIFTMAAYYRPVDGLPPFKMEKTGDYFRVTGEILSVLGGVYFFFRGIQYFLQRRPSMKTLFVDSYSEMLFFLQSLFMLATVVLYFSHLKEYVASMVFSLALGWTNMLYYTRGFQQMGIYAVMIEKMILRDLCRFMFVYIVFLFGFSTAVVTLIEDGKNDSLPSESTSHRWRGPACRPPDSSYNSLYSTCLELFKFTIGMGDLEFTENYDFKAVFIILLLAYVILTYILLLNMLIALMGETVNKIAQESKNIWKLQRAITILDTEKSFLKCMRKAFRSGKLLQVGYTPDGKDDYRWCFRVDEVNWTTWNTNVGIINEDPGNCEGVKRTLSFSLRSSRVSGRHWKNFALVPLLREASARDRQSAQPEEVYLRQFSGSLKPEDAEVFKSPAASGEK
# Method: Evaluation of Human pH Inhibitory Activity
# PrecisION™ hTRPV1-HEK recombinant cells (CYL3063) were purchased from Millipore and used. After culturing the above cells under the conditions of 37° C. and 5% CO2, the cells were inoculated in a 96-well plate at the density of 5×10^4 cells/well, followed by culture for 16 hours. Then, the medium was removed and 100 uL of a staining solution was put into each well, followed by culture for 30 minutes under the conditions of 37° C. and 5% CO2. After 30 minutes, all of the existing staining solution was removed and replaced with 100 uL of HBSS. Thereafter, the cells were acclimatized to room temperature for 15 minutes, and the test substances (example compounds and comparative example compounds of the present invention) were added to each well, followed by culture at room temperature for 15 minutes. Then, the final pH was adjusted to 6.0 using MES, and fluorescence was measured (ex485/em535). In the pH assay, the efficacy of the drug was evaluated using BCTC as a TRPV1 antagonist.
# human TRPV1 (hTRPV1) [2] = target: T1, human TRPV1 (hTRPV1); assay: Ca2+ influx assay, antagonism against capsaicin in hTRPV1-HEK recombinant cells; format: cell-based; conditions: capsaicin 10 nM as activator, Fluo4-NW fluorescence, read-out: hTRPV1 IC50 [cap]
Structure (SMILES),"hTRPV1 pH (%, 3 μM) (human TRPV1 (hTRPV1) [1])",IC50 (human TRPV1 (hTRPV1) [2])
"O=C(/C=C/c1ccc(C(F)(F)Cl)nc1OCC1CC1)Nc1cccc2[nH]c(=O)[nH]c12 [Example 17, (E)-3-(6-(chlorodifluoromethyl)-2-(cyclopropylmethoxy)pyridin-3-yl)-N-(2-oxo-2,3-dihydro-1H-benzo[d]imidazol-4-yl)acrylamide]",83.20%,56.9 nM
"CC1(c2ccc(/C=C/C(=O)Nc3cccc4[nH]c(=O)[nH]c34)c(OCC3CC3)n2)CC1 [Example 20, (E)-3-(2-(cyclopropylmethoxy)-6-(1-methylcyclopropyl)pyridin-3-yl)-N-(2-oxo-2,3-dihydro-1H-benzo[d]imidazol-4-yl)acrylamide]",86.79%,53.5 nM
"O=C(/C=C/c1ccc(C(F)F)nc1OCC1CC1)Nc1cccc2[nH]c(=O)[nH]c12 [Example 21, (E)-3-(2-(cyclopropylmethoxy)-6-(difluoromethyl)pyridin-3-yl)-N-(2-oxo-2,3-dihydro-1H-benzo[d]imidazol-4-yl)acrylamide]",79.89%,26.1 nM
"CC(F)(F)c1ccc(/C=C/C(=O)Nc2cccc3[nH]c(=O)[nH]c23)c(OCC2CC2)n1 [Example 22, (E)-3-(2-(cyclopropylmethoxy)-6-(1,1-difluoroethyl)pyridin-3-yl)-N-(2-oxo-2,3-dihydro-1H-benzo[d]imidazol-4-yl)acrylamide]",90.86%,31.2 nM
"O=C(/C=C/c1ccc(C(F)(F)F)nc1OCC1CCC1)Nc1cccc2[nH]c(=O)[nH]c12 [Example 25, (E)-3-(2-(cyclobutylmethoxy)-6-(trifluoromethyl)pyridin-3-yl)-N-(2-oxo-2,3-dihydro-1H-benzo[d]imidazol-4-yl)acrylamide]",89.76%,34.1 nM
"O=C(/C=C/c1ccc(C(F)(F)F)nc1OCC1CCCC1)Nc1cccc2[nH]c(=O)[nH]c12 [Example 26, (E)-3-(2-(cyclopentylmethoxy)-6-(trifluoromethyl)pyridin-3-yl)-N-(2-oxo-2,3-dihydro-1H-benzo[d]imidazol-4-yl)acrylamide]",95.11%,54.4 nM
"CC(C)CSc1nc(C(F)(F)F)ccc1/C=C/C(=O)Nc1cccc2[nH]c(=O)[nH]c12 [Example 27, (E)-3-(2-(isobutylthio)-6-(trifluoromethyl)pyridin-3-yl)-N-(2-oxo-2,3-dihydro-1H-benzo[d]imidazol-4-yl)acrylamide]",78.45%,40.9 nM
"O=C(/C=C/c1ccc(C(F)(F)F)nc1-c1cccc(F)c1)Nc1cccc2[nH]c(=O)[nH]c12 [Example 30, (E)-3-(2-(3-fluorophenyl)-6-(trifluoromethyl)pyridin-3-yl)-N-(2-oxo-2,3-dihydro-1H-benzo[d]imidazol-4-yl)acrylamide]",48.62%,14.2 nM
"O=C(/C=C/c1ccc(C(F)(F)F)nc1-c1cccc(Cl)c1)Nc1cccc2[nH]c(=O)[nH]c12 [Example 31, (E)-3-(2-(3-chlorophenyl)-6-(trifluoromethyl)pyridin-3-yl)-N-(2-oxo-2,3-dihydro-1H-benzo[d]imidazol-4-yl)acrylamide]",82.34%,26 nM
"CC(C)c1cccc(-c2nc(C(F)(F)F)ccc2/C=C/C(=O)Nc2cccc3[nH]c(=O)[nH]c23)c1 [Example 32, (E)-3-(2-(3-isopropylphenyl)-6-(trifluoromethyl)pyridin-3-yl)-N-(2-oxo-2,3-dihydro-1H-benzo[d]imidazol-4-yl)acrylamide]",67.88%,23.7 nM
"O=C(/C=C/c1ccc(C(F)(F)F)nc1-c1ccc(F)c(Cl)c1)Nc1cccc2[nH]c(=O)[nH]c12 [Example 33, (E)-3-(2-(3-chloro-4-fluorophenyl)-6-(trifluoromethyl)pyridin-3-yl)-N-(2-oxo-2,3-dihydro-1H-benzo[d]imidazol-4-yl)acrylamide]",69.89%,27.4 nM
"O=C(/C=C/c1ccc(C(F)(F)F)nc1-c1ccc(F)cc1)Nc1cccc2[nH]c(=O)[nH]c12 [Example 34, (E)-3-(2-(4-fluorophenyl)-6-(trifluoromethyl)pyridin-3-yl)-N-(2-oxo-2,3-dihydro-1H-benzo[d]imidazol-4-yl)acrylamide]",37.85%,11.1 nM
"O=C(/C=C/c1ccc(C(F)(F)F)nc1-c1cccs1)Nc1cccc2[nH]c(=O)[nH]c12 [Example 35, (E)-N-(2-oxo-2,3-dihydro-1H-benzo[d]imidazol-4-yl)-3-(2-(thiophen-2-yl)-6-(trifluoromethyl)pyridin-3-yl)acrylamide]",95.87%,11.8 nM
"O=C(/C=C/c1ccc(C(F)(F)F)nc1-c1ccco1)Nc1cccc2[nH]c(=O)[nH]c12 [Example 36, (E)-3-(2-(furan-2-yl)-6-(trifluoromethyl)pyridin-3-yl)-N-(2-oxo-2,3-dihydro-1H-benzo[d]imidazol-4-yl)acrylamide]",100.46%,11 nM
"CC(C)(C)C#Cc1nc(C(F)(F)F)ccc1/C=C/C(=O)Nc1cccc2[nH]c(=O)[nH]c12 [Example 39, (E)-3-(2-(3,3-dimethyl-1-butyn-1-yl)-6-(trifluoromethyl)pyridin-3-yl)-N-(2-oxo-2,3-dihydro-1H-benzo[d]imidazol-4-yl)acrylamide]",67.89%,35.4 nM
"CC(C)COc1cc(C(F)(F)F)ccc1/C=C/C(=O)Nc1cccc2[nH]c(=O)[nH]c12 [Example 42, (E)-3-(2-isobutoxy-4-(trifluoromethyl)phenyl)-N-(2-oxo-2,3-dihydro-1H-benzo[d]imidazol-4-yl)acrylamide]",78.89%,35.4 nM
"O=C(/C=C/c1ccc(C(F)(F)F)cc1OCC1CC1)Nc1cccc2[nH]c(=O)[nH]c12 [Example 43, (E)-3-(2-(cyclopropylmethoxy)-4-(trifluoromethyl)phenyl)-N-(2-oxo-2,3-dihydro-1H-benzo[d]imidazol-4-yl)acrylamide]",87.68%,19.7 nM
"CC(C)(C)c1ccc(/C=C/C(=O)Nc2cccc3[nH]c(=O)[nH]c23)c(OCC2CC2)c1 [Example 45, (E)-3-(4-(tert-butyl)-2-(cyclopropylmethoxy)phenyl)-N-(2-oxo-2,3-dihydro-1H-benzo[d]imidazol-4-yl)acrylamide]",48.71%,79.3 nM
"O=C(/C=C/c1ccc(C2CC2)cc1OCC1CC1)Nc1cccc2[nH]c(=O)[nH]c12 [Example 46, (E)-3-(4-cyclopropyl-2-(cyclopropylmethoxy)phenyl)-N-(2-oxo-2,3-dihydro-1H-benzo[d]imidazol-4-yl)acrylamide]",57.38%,72.9 nM
"O=C(/C=C/c1cc(C(F)(F)F)nn1-c1cccc(Cl)c1)Nc1cccc2[nH]c(=O)[nH]c12 [Example 47, (E)-3-(1-(3-chlorophenyl)-3-(trifluoromethyl)-1H-pyrazol-5-yl)-N-(2-oxo-2,3-dihydro-1H-benzo[d]imidazol-4-yl)acrylamide]",37.26%,15.9 nM
"Cc1cccc(-n2nc(C(F)(F)F)cc2/C=C/C(=O)Nc2cccc3[nH]c(=O)[nH]c23)c1 [Example 48, (E)-N-(2-oxo-2,3-dihydro-1H-benzo[d]imidazol-4-yl)-3-(1-(m-tolyl)-3-(trifluoromethyl)-1H-pyrazol-5-yl)acrylamide]",29.43%,9.95 nM
"O=C(/C=C/c1cc(C(F)(F)F)nn1-c1ccc(F)c(Cl)c1)Nc1cccc2[nH]c(=O)[nH]c12 [Example 49, (E)-3-(1-(3-chloro-4-fluorophenyl)-3-(trifluoromethyl)-1H-pyrazol-5-yl)-N-(2-oxo-2,3-dihydro-1H-benzo[d]imidazol-4-yl)acrylamide]",21.37%,19.9 nM
"CC(C)c1cccc(-n2nc(C(F)(F)F)cc2/C=C/C(=O)Nc2cccc3[nH]c(=O)[nH]c23)c1 [Example 50, (E)-3-(1-(3-isopropylphenyl)-3-(trifluoromethyl)-1H-pyrazol-5-yl)-N-(2-oxo-2,3-dihydro-1H-benzo[d]imidazol-4-yl)acrylamide]",34.22%,41.3 nM
"CC(C)(C)c1cc(/C=C/C(=O)Nc2cccc3[nH]c(=O)[nH]c23)n(-c2cccc(Cl)c2)n1 [Example 53, (E)-3-(3-(tert-butyl)-1-(3-chlorophenyl)-1H-pyrazol-5-yl)-N-(2-oxo-2,3-dihydro-1H-benzo[d]imidazol-4-yl)acrylamide]",78.21%,79.8 nM
"O=C(/C=C/c1sc(C(F)(F)F)nc1-c1cccc(Cl)c1)Nc1cccc2[nH]c(=O)[nH]c12 [Example 54, (E)-3-(4-(3-chlorophenyl)-2-(trifluoromethyl)thiazol-5-yl)-N-(2-oxo-2,3-dihydro-1H-benzo[d]imidazol-4-yl)acrylamide]",63.44%,55.7 nM
"O=C(/C=C/c1sc(C2CC2)nc1-c1cccc(Cl)c1)Nc1cccc2[nH]c(=O)[nH]c12 [Example 56, (E)-3-(4-(3-chlorophenyl)-2-cyclopropylthiazol-5-yl)-N-(2-oxo-2,3-dihydro-1H-benzo[d]imidazol-4-yl)acrylamide]",68.23%,26 nM
